Test results published in US20200270310A1, “MAFG AS A POTENTIAL THERAPEUTIC TARGET TO RESTORE CHEMOSENSITIVITY IN PLATINUM-RESISTANT CANCER CELLS” (FUNDACÓIN PARA LA INVESTIGACIÓN BIOMÉDICA DEL HOSPITAL …, priority 2017, published 2020).

B1: GCGGATGAAGACTGGTGTCGATGCATGTGTAGTGCATTTCGAGCCGTTCTATTGGTGTGCCCTAAATACGAGCAAC (nucleic acid)
chain: GCGGATGAAGACTGGTGTCGATGCATGTGTAGTGCATTTCGAGCCGTTCTATTGGTGTGCCCTAAATACGAGCAAC
modifications: chemistry not given here
notes: DNA aptamer selected against the MAFG protein by SELEX

Experiments:
H1299 cells = experiment: Viability to CDDP with and without apMAFG6F; type: cell-based, human
Text: The human cancer cells H23 and A2780, and the HEK-293T epithelial cells were purchased from ATCC (Manassas, USA) and ECACC (Sigma, Spain) and cultured as recommended. The CDDP-resistant variants H23R and A2780R were established in our laboratory as previously described, using CDDP (Farma Ferrer, Spain) for cell viability assays. To validate the results obtained from the resistant cell lines established in our laboratory, we also used the CDDP-resistant lung cancer cell line H1299, with IC50 over 7, purchased from ATCC and maintained as recommended.
HEK293 and H23S/R cells were seeded into 96-well plates then transfected with 5, 12.5, 25, 75 and 100 nM of MAFG aptamers or treated with PBS-Mg using Jet Pei PolyPlus transfection reagent (PolyPlus Transfection, USA). The dose of 25 nM aptamer was afterwards used in combination with increased doses of CDDP to assay viability and ROS production as described above. To confirm the aptamer-transfection efficiency cells were seeded in 24-well plates for aptamer isolation and confirmation of aptamer transfection by quantitative analysis. A Myc-DDK-tagged ORF clone of MAFG the negative control pCMV6 were used for in transient transfection (OriGene, USA) in combination with MAFG-aptamers following the same procedure.

IMIM-PC2 cells = experiment: Viability to CDDP; type: cell-based, human
Text: (§1) Fifteen human cancer cell lines were purchased from ATCC (Manassas, Va.) or ECACC (Sigma-Aldrich, Spain) and cultured as recommended. The CDDP-resistant variants A2780R and OVCAR3R were selected after a final exposure to […] cisplatin, respectively (Farma Ferrer, Spain), as previously described for H23R and H460R variants The additional 11 human cell lines, PC-3, LNCAP, H727, HT29, A549, BT474, LoVo, IMIM-PC-2, SKOV3, SW780 and IMR90, were used for further validations. For viability assays cells were treated with increasing doses of CDDP. The epigenetic reactivation drugs 5Aza-2deoxycytidine (5Aza-dC) and trichostatin A (TSA) (Sigma-Aldrich, Spain) were used at […] and at 300nM respectively.

LoVo cells = experiment: Viability to CDDP; type: cell-based, human
Text: as §1

MAFG-Myc = target: T1, MAFG-Myc (Homo sapiens, UniProt O15525); experiment: Enzyme-linked oligonucleotide assay (ELONA) of aptamers and aptamer populations; type: binding
T1 construct: Myc (C); DDK (FLAG)
T1 sequence (O15525 whole entry): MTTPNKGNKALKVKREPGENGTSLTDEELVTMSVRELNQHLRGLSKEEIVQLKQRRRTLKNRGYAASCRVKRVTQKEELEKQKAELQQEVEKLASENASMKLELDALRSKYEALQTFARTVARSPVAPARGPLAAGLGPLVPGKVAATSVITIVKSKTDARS
Method: FIG. 4. Analysis of the affinity of the aptamers against MAFG. (A) Quantification of aptamer-MAFG complexes by qPCR comparing absence (dot pattern) or presence (filled pattern) of MAFG protein. […] Bars represent the mean±SEM of 2-3 experiments (B) Specificity binding assay of aptamers to MAFG performed by ELONA. MAFG-myc was plated at 50ng/well in 96-well plates followed by incubation with 5′ digoxigenin-labeled aptamers from RND40, SEL3MAFG and SEL6MAFG. The figure represents the mean±SEM of 3 independent experiments. p<0.01. (C) Aptacytochemistry in HEK-293T cells transiently transfected with MAFG-myc. Cells overexpressing MAFG were incubated with 5′ Alexafluor 488-conjugated aptamers from RND40, SEL3MAFG or SEL6MAFG (upper panel) or Myc antibody (lower panel). Confocal microscopy images corresponding to the staining of nuclei with Hoechst (blue), antibodies (red), and aptamers (green) are shown. Arrowhead indicates positive cells. Bar=13 μm. (D) Study of individual aptamers affinity performed by ELONA. Recombinant MAFG was plated at 50 ng/well in 96-well plates followed by incubation with 5′ digoxigenin-labeled individual aptamers apMAGF3F, apMAFG6F and apMAFG11F. The figure represents the mean±SD of 2 independent experiments. (E) Secondary structures of aptamers apMAGF3F, apMAFG6F and apMAFG11F obtained by bioinformatics sequence analysis using the mFold software taking into account the lower free energy (AG).
(ii) Enzyme-linked oligonucleotide assay (ELONA): Aptamers were labeled by PCR using 5′ digoxigenin-labeled F3/5′ digoxigenin-labeled R3 primers (IBA Life Sciences). To assess the enrichment of the selected population and the affinity of the individual aptamers for the target, MAFG-Myc (50 ng) was incubated with the rounds 3, 6 of aptamers or the RND40 library. OD405nm values were determined using a SpectraFluor microplate reader (TECAN, Barcelona, Spain).

Row | Molecule | CDDP IC50 (H1299 cells; H1299, as stated in materials, unit not given) | CDDP IC50 (H1299 cells; untransfected H1299) [µg/mL] | IC50 of CDDP (IMIM-PC2 cells) | IC50 of CDDP (LoVo cells) | affinity against MAFG (MAFG-Myc; Example 1, individual aptamers) | binding capacity to the target (MAFG-Myc; Example 3, individual sequences from SEL6MAFG) | binding signal relative to BSA protein (MAFG-Myc; individual sequences from SEL6MAFG)
1 | [NH2][Pt]([NH2])([Cl])[Cl] [CDDP, Cisplatin] | over 7 | 10 | over 2 μg/ml | over 2 μg/ml |  |  | 
2 | B1 |  |  |  |  | high affinity | high binding capacity to the target in the nanomolar range | four times that of the BSA protein
